From US20240108753A1, “NUCLEIC ACID DELIVERY” (NUNTIUS THERAPEUTICS LIMITED, priority 2021, published 2024)
Where a SMILES comes first, the peptide text is derived from it.

Experiment: Cell viability after transfection (crystal violet)
Format: cell-based, human
Conditions: human, HeLa cells, following transfection with DNA formulations
Procedure: Cell viability. Cells were transfected as described in ‘Transfection Procedure’. Following 24 hours of transfection, the medium was removed and the cells were washed twice with PBS. Afterwards, the cells were dried for 1 hour at room temperature (to allow permeation of the nuclear stain). Crystal violet solution (50 μL of stock solution supplied by Sigma-Aldrich) was added to the cells. They were incubated for 15 min at room temperature. After washing with distilled water (5 times), the cells were dried for 30 min at room temperature. Then, MeOH (200 μL) was added and the suspension was incubated for 1 hour at room temperature. The relative amount of the crystal violet stain retained by viable cells was determined by the absorbance of the methanolic solution at 550 nm.

CC(C)C[C@H](NC(=O)[C@H](CCCCN)NC(=O)[C@H](CCCCNC(=O)[C@H](CC(C)C)NC(=O)[C@H](CCCCN)NC(=O)[C@H](CCCCNC(=O)[C@H](CC(C)C)NC(=O)[C@@H](N)CCCCN)NC(=O)[C@H](CC(C)C)NC(=O)[C@@H](N)CCCCN)NC(=O)[C@H](CC(C)C)NC(=O)[C@H](CCCCN)NC(=O)[C@H](CCCCNC(=O)[C@H](CC(C)C)NC(=O)[C@@H](N)CCCCN)NC(=O)[C@H](CC(C)C)NC(=O)[C@@H](N)CCCCN)C(=O)NCCCC[C@H](NC(=O)[C@H](CC(C)C)NC(=O)[C@H](CCCCN)NC(=O)[C@H](CCCCNC(=O)[C@H](CC(C)C)NC(=O)[C@H](CCCCN)NC(=O)[C@H](CCCCNC(=O)[C@H](CC(C)C)NC(=O)[C@@H](N)CCCCN)NC(=O)[C@H](CC(C)C)NC(=O)[C@@H](N)CCCCN)NC(=O)[C@H](CC(C)C)NC(=O)[C@H](CCCCN)NC(=O)[C@H](CCCCNC(=O)[C@H](CC(C)C)NC(=O)[C@@H](N)CCCCN)NC(=O)[C@H](CC(C)C)NC(=O)[C@@H](N)CCCCN)C(=O)NCC(=O)N[C@@H](CO)C(=O)N[C@@H](CS)C(N)=O [G1,2,3-KL, (KL)8(KKL)4(KKL)2KGSC-NH2] (HELM PEPTIDE1{K.L.K.K.L.K.K.L.K.G.S.C.[am]}|PEPTIDE2{K.L}|PEPTIDE3{K.L.K.K.L.K.K.L}|PEPTIDE4{K.L}|PEPTIDE5{K.L.K.K.L}|PEPTIDE6{K.L}|PEPTIDE7{K.L.K.K.L}|PEPTIDE8{K.L}$PEPTIDE1,PEPTIDE2,3:R3-2:R2|PEPTIDE3,PEPTIDE4,3:R3-2:R2|PEPTIDE5,PEPTIDE6,3:R3-2:R2|PEPTIDE7,PEPTIDE8,3:R3-2:R2|PEPTIDE1,PEPTIDE7,6:R3-5:R2|PEPTIDE1,PEPTIDE3,9:R3-8:R2|PEPTIDE3,PEPTIDE5,6:R3-5:R2$$$V2.0)
viability at 24 h: ≥ 40%
